Results on one molecule are retold here after paper doi:10.1101/2023.11.09.566408v1 (bioRxiv, 2023).

The format of series [1] is in vivo, mice. The note with it: male, Swiss, mouse, plasma, po, 100 ug.
The conditions of series [2]: rats, IV, cited from earlier work.

A word on the Tmax: it is the time from dosing to the highest level. On to `CC[C@H](C)[C@H](NC(=O)[C@@H]1CCCN1C(=O)CNC(=O)[C@H](Cc1ccccc1)NC(=O)[C@H](CC(N)=O)NC(=O)[C@H](CC(N)=O)NC(=O)[C@H](CO)NC(=O)[C@H](CO)NC(=O)[C@H](Cc1c[nH]cn1)NC(=O)[C@@H](NC(=O)[C@H](CC(C)C)NC(=O)[C@H](Cc1ccccc1)NC(=O)[C@H](CC(N)=O)NC(=O)[C@H](C)NC(=O)[C@H](CC(C)C)NC(=O)[C@H](CCCNC(=N)N)NC(=O)[C@H](CCC(N)=O)NC(=O)[C@@H](NC(=O)[C@H](C)NC(=O)[C@@H]1CSSC[C@H](NC(=O)[C@@H](N)CCCCN)C(=O)N[C@@H](CC(N)=O)C(=O)N[C@@H]([C@@H](C)O)C(=O)N[C@@H](C)C(=O)N[C@@H]([C@@H](C)O)C(=O)N1)[C@@H](C)O)C(C)C)C(=O)N[C@@H](CC(C)C)C(=O)N1CCC[C@H]1C(=O)N1CCC[C@H]1C(=O)N[C@H](C(=O)N[C@@H](CC(N)=O)C(=O)N[C@H](C(=O)NCC(=O)N[C@@H](CO)C(=O)N[C@@H](CC(N)=O)C(=O)N[C@H](C(=O)N[C@@H](Cc1ccc(O)cc1)C(N)=O)[C@@H](C)O)C(C)C)[C@@H](C)O` [pramlintide], for which the Tmax in series [1] is 30 min. Also, the plasma concentration in series [2] (1 μg) is on record as 1,000 pM. Besides, the plasmatic concentration in series [2] (10 μg) was 10,000 pM.
